From US20080188680A1, “Process Improvement Using Solubility Characteristics” (priority 2005, published 2008)

Columns and labels:
[1] = Gravimetric solubility of diester in methanol (saturated solution); format: physicochemical
Protocol: The solubility of dimethyl-5-nitrophthalate (“diester”) in methanol was determined through the normal boiling of methanol, and presented in the following table:
Using glass pressure test tubes immersed in boiling water, an additional point for the solubility of diester at 100° C. was measured to be about 58 wt % diester.
Generally, the solubility was determined gravimetrically. A dilute slurry of diester and methanol was heated to a desired temperature. As needed, more diester solids were added to maintain a dilute slurry. The slurry was heated to a known temperature and stirred for approximately 15-30 minutes to assure the diester solids were equilibrated and the solution was saturated. Then, the stirring was stopped and the diester solids were allowed to settle. A sample of the supernatant liquid was obtained, the liquid was evaporated and the weight of the residual diester was measured. The weight of the residual diester solid was used to calculate the solubility of the diester solid in the methanol. This procedure was repeated for several different temperatures. Then, from the highest temperature, the procedure was repeated except the slurry was cooled to each sampling point and methanol was added instead of diester solids as necessary to maintain a dilute slurry. The difference in the solubility data sets between the heating data set and the cooling data set is an indication of how well equilibrium was obtained.

[2] = Activity coefficient of diester in saturated methanol solution, transformed from the solubility data; format: physicochemical; parameters: key: γ = ideal mole-fraction solubility / actual mole-fraction solubility
Description: Solubility data can be compared to the ideal solubility. Two component solubility data (solute and solvent) at various temperatures can be easily calculated as a mole fraction of the solute in solution. The ratio of the mole fraction ideal solubility, xsolute ideal (calculated at the same temperature as the solubility data point) to each mole fraction solubility data point, xsolute actual is the activity coefficient, γsolute. These relationships are expressed mathematically, per equation (2)
In order to solve equation (3) for the activity coefficient, three experimental values are necessary: (i) the melting point of the solute, (ii) the heat of fusion of the solute in cal/g·mol and (iii) at least one value for the solubility of the specific solute in a specific solvent. Assuming the heat of fusion of the solute is constant over the range of temperatures, the relationship in equation (3) allows the mathematical transformation of the temperature and solubility data into an activity coefficient for the solute at each temperature. The terms in equation (3) are defined as follows: γsolute is the activity coefficient of the solute, xsolute is the mole fraction of the solute at a given temperature, T, in K; −ΔH^Fsolute is the heat of fusion in cal/g·mol of the solute, R is the ideal gas constant in cal/K·mol, T is the temperature of a given value for xsolute in K; and Tm(solute) is the melting temperature of the solute in K.
To interpret the solubility information, additional physical properties of diester were measured. The melting point was 124° C. (123-125° C.). The heat of fusion was 7422 cal/g·mole.
The solubility of diester, being a non-electrolyte, would obey the following thermodynamic relationship.
This relationship allows the weight % solubility versus temperature data to be mathematically transformed into an activity coefficient versus temperature data. The corresponding activity coefficient for each solubility data point is as follows: […]

Structure (SMILES): COC(=O)c1cc(C(=O)OC)cc([N+](=O)[O-])c1 [Diester, dimethyl-5-nitro-isophthalate]
- solubility ([1]; 25° C.): about 1 wt. %
- wt % Diester (solubility in methanol) ([1]; methanol, 25.5 C): 1.0% wt %
- wt % Diester (solubility in methanol) ([1]; methanol, 31.1 C): 1.2% wt %
- wt % Diester (solubility in methanol) ([1]; methanol, 34.1 C): 1.4% wt %
- wt % Diester (solubility in methanol) ([1]; methanol, 34.6 C): 1.5% wt %
- wt % Diester (solubility in methanol) ([1]; methanol, 39.6 C): 1.9% wt %
- wt % Diester (solubility in methanol) ([1]; methanol, 44.0 C): 2.3% wt %
- wt % Diester (solubility in methanol) ([1]; methanol, 44.3 C): 2.3% wt %
- wt % Diester (solubility in methanol) ([1]; methanol, 52.4 C): 3.5% wt %
- wt % Diester (solubility in methanol) ([1]; methanol, 54.1 C): 3.7% wt %
- wt % Diester (solubility in methanol) ([1]; methanol, 61.2 C): 5.7% wt %
- wt % Diester (solubility in methanol) ([1]; methanol, 65.3 C): 7.0% wt %
- wt % Diester (solubility in methanol) ([1]; methanol, 65.4 C): 7.0% wt %
- wt % Diester (solubility in methanol) ([1]; methanol, 100 C, glass pressure test tubes in boiling water): 58.0% wt %
- wt % Diester (solubility in methanol) ([1]; methanol, 100 C, glass pressure test tubes in boiling water, listed as diester): about 58 wt %
- wt % Diester (solubility in methanol) ([1]; methanol, 100 C, glass pressure test tubes in boiling water, listed as dimethyl-5-nitro-isophthalate): about 58 wt %
- maximum solubility obtained below the normal boiling point of methanol ([1]; methanol, below normal boiling point): 7 wt. %
- concentration of diester solutions obtained ([1]; methanol, temperature above 100° C.): greater than 70 wt. %
- Activ Coef ([2]; 25.5 C): 36.3
- Activ Coef ([2]; 31.1 C): 33.7
- Activ Coef ([2]; 34.1 C): 32.4
- Activ Coef ([2]; 34.6 C): 32.1
- Activ Coef ([2]; 39.6 C): 30.1
- Activ Coef ([2]; 44.0 C): 28.4
- Activ Coef ([2]; 44.3 C): 28.3
- Activ Coef ([2]; 52.4 C): 25.3
- Activ Coef ([2]; 54.1 C): 24.7
- Activ Coef ([2]; 61.2 C): 21.9
- Activ Coef ([2]; 65.3 C): 20.4
- Activ Coef ([2]; 65.4 C): 20.5
- Activ Coef ([2]; 100.0 C): 3.5
